Laboratory results published in publication PMC4832243, “Discovery of Potent VEGFR-2 Inhibitors based on Furopyrimidine and Thienopyrimidne Scaffolds as Cancer Targeting Agents” (Scientific Reports, 2016).

Key:
c-Kit = c-Kit (Homo sapiens, UniProt P10721); test: In vitro multiple-kinase inhibition assay, c-Kit (ADP-Glo); format: biochemical
Description: (§1) In vitro multiple-kinase inhibition assay. […] Kinase enzymatic activity of the tested compounds was evaluated against a reference kinase inhibitor at 10 μM (Table 2).
(§2) The multiple kinases activity at single dose concentration of 10 μM was performed, c-Kit, c-Raf, c-Src, RET served as the enzyme source. […] Kinase-Glo Plus Luminescence kinase assay kit (Promega#V3772), ADP-Glo Luminescence assay kit was used for c-kit assay (Supplementary). […]
(§3) mM MgCl2, 0.1 mg/ml BSA, 1 mM DTT, 10 µM ATP, Kinase substrate and VEGFR. After the enzymatic reaction, 50 µl of Kinase-Glo Plus Luminescence kinase assay solution (Promega) was added to each reaction and incubate the plate for 5 minutes at room temperature.
(§4) Luminescence signal was measured using a BioTek Synergy 2 microplate reader. VEGFR activity assays were performed in duplicate at each concentration.
(§5) The luminescence data were analyzed using the computer software, Graphpad Prism. The difference between luminescence intensities in the absence of VEGFR (Lut) and in the presence of VEGFR (Luc) was defined as 100 % activity (Lut – Luc). Using luminescence signal (Lu) in the presence of the compound, % activity was calculated as:
(§6) % activity = {(Lut - Lu)/(Lut - Luc)}×100%, where Lu= the luminescence intensity in the […]
(§7) IC50 determination for inhibitor against VEGFR was calculated. The values of % activity versus a series of compound concentrations (1 nM - 10 nM - 100 nM - 1 µM - 10 µM) were then […]
(§8) or Hill coefficient. The IC50 value was determined by the concentration causing a half-maximal […]
(§9) In vitro multiple-kinase inhibition assay
The assay was performed using the same conditions for VEGFR-2 activity assay (section 5.2.1.1). The assays for c-Kit was an exception, it was performed using ADP-Glo Kinase assay reagents (Promega). It measures kinase activity by quantitating the ADP amount produced from the enzymatic reaction. The luminescent signal from the assay is correlated with the amount of ADP present and is directly correlated with the amount of kinase activity. Other conditions are same to the previous section except the final reaction volume was reduced to 25 µl. After the 40 min kinase reaction at 30 °C, 25 µl of ADP-Glo reagent was added and incubated for 45 min at room temperature followed by another 50 min incubation with 50 µl of Kinase detection mixture.
(§10) Luminescence signal was measured using a BioTek Synergy 2 microplate reader […]
(§11) The luminescence data were analyzed using the same computer software and the same protocol

c-Raf = c-Raf (Homo sapiens, UniProt P04049); test: In vitro multiple-kinase inhibition assay, c-Raf; format: biochemical
Description: as §1, §2, §3, §4, §5, §6, §7, §8, §9, §10, §11

c-Src = c-Src (Homo sapiens, UniProt P12931); test: In vitro multiple-kinase inhibition assay, c-Src; format: biochemical
Description: as §1, §2, §3, §4, §5, §6, §7, §8, §9, §10, §11

RET = RET (Homo sapiens, UniProt P07949); test: In vitro multiple-kinase inhibition assay, RET; format: biochemical
Description: as §1, §2, §3, §4, §5, §6, §7, §8, §9, §10, §11

[1] = tested on: Ehrlich ascites carcinoma (EAC) solid tumor; test: In vivo anticancer activity, EAC solid tumor murine model; parameters: species or system Swiss albino mice; settings: for TGI (%): once daily for 8 consecutive days; for Histopathological examination of EAC tumor sections (necrosis): hematoxylin-eosin, 40x
Description: Animals. Female Swiss albino mice weighing 15–20 g were used in the present study. They were obtained from the animal breeding laboratory, National Cancer Institute (NCI), Cairo University, Egypt. Animals were kept in our animal facility, faculty of pharmacy, Ain Shams university at 25 ± 2 °C and a relative humidity of 40–45% with alternative day and night cycles of 12 h each. Animals had free access to pellet food and water ad libitum. Standard diet pellets (El-Nasr, Abu Zaabal, Egypt) contained not less than 20% protein, 5% fiber, 3.5% fat, 6.5% ash and a vitamin mixture. Animal care and experiments were conducted in accordance with the protocols approved by the Ethics Research Committee, Faculty of Pharmacy, Ain Shams University, following the Institutional Animal Care and Use Committee guidelines.
Tumor cells preparation and transplantation. Ehrlich ascites carcinoma (EAC) cells were obtained from NCI, Cairo University, Egypt. EAC cells were maintained in the ascitic form in Swiss albino mice by intraperitoneal transplantation of each mouse every 10 days. Ascitic fluid was drawn from tumor-bearing mice at the log phase (7–8th day of tumor bearing) of the tumor cells. The freshly drawn fluid was diluted with ice-cold sterile isotonic saline. 200 μl tumor cell suspension containing 2 × 10^6 tumor cells were then subcutaneously injected in each mouse.
Experimental design. Swiss albino mice were divided into six groups (n = 6 per group).
Evaluation of effectiveness. Tumor growth curve was drawn according to the change in tumor volume from first day of treatment (day 0) till day 7. Longest and shortest diameters of the solid tumor were monitored using a digital vernier caliper. Tumor volume (TV) of each animal was calculated using the following formula: […]
Tumor growth inhibition (TGI) was calculated as follows.
RTV = (Tumor volume at the day of measurement)/Tumor volume at the initial day.
Histopathological Examination
thickness by slidge microtome.
graded ethanol solutions.

[2] = tested on: VEGF-induced vascular permeability (Evans Blue extravasation); test: Miles vascular permeability assay; parameters: species or system mice; settings: in vivo; 10 mg/kg (Fig. 15)
Description: Miles Vascular Permeability Assay. One to two days prior to the experiment, mice were shaved to expose the skin. Mice were anesthetized with intra-peritoneal injection of Avertin. A sterile solution of 1% Evans Blue (EB) in PBS was prepared and 100 μl was injected IV into the tail vein, using a needle (small gauge, 27–30) at a 10–15 degree angle. The animals were then left for (30–60) min. VEGF (50 μl of 1 ng/μl) and 50 μl of PBS with 0.05% gelatin were injected intradermally using a 30-gauge needle into the skin overlying the back. After 20 min, the animals were sacrificed by cervical dislocation that is recommended to limit significant interference with vascular permeability. The skin was opened, exposed and representative pictures were taken to assess the intensity of EB […]. The Formamide/EB mixture was centrifuged and supernatant absorbance was measured at 600 nm (Shimadzu Spectrophotometer, UV-1601; Japan). extravasation was calculated as ng EB per mg tissue.

phospho-VEGFR-2 (Tyr951) = phospho-VEGFR-2 (Tyr951) (Mus musculus, UniProt P35918); test: Immunohistochemistry of EAC solid tumor sections, phospho-VEGFR-2; settings: oral treatment of EAC-bearing mice
active caspase 3 = test: Immunohistochemistry of EAC solid tumor sections, active caspase 3; settings: oral treatment of EAC-bearing mice
CD31 and CD34 (% MVD) = test: Immunohistochemistry of EAC solid tumor sections, microvessel density (CD31, CD34); settings: oral treatment of EAC-bearing mice

Chain of c-Raf (P04049 whole entry, species assumed): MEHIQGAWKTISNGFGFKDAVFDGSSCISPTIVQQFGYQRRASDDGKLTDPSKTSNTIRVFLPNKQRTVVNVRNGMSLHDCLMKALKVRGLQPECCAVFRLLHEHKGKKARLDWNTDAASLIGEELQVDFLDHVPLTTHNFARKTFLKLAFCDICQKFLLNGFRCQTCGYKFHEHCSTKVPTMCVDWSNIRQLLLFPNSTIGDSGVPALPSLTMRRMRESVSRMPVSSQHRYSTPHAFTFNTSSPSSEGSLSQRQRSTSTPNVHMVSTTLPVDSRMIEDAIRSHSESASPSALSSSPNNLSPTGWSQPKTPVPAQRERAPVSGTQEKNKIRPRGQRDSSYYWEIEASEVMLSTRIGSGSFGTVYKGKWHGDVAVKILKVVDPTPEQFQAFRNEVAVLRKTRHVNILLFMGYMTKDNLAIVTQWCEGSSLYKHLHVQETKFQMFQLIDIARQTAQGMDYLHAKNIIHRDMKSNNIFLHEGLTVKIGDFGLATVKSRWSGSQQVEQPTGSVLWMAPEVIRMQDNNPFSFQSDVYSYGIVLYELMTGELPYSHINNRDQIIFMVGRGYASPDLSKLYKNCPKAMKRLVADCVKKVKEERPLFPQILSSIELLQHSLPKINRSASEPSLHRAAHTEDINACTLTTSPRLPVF
Chain of c-Kit (P10721 26-976): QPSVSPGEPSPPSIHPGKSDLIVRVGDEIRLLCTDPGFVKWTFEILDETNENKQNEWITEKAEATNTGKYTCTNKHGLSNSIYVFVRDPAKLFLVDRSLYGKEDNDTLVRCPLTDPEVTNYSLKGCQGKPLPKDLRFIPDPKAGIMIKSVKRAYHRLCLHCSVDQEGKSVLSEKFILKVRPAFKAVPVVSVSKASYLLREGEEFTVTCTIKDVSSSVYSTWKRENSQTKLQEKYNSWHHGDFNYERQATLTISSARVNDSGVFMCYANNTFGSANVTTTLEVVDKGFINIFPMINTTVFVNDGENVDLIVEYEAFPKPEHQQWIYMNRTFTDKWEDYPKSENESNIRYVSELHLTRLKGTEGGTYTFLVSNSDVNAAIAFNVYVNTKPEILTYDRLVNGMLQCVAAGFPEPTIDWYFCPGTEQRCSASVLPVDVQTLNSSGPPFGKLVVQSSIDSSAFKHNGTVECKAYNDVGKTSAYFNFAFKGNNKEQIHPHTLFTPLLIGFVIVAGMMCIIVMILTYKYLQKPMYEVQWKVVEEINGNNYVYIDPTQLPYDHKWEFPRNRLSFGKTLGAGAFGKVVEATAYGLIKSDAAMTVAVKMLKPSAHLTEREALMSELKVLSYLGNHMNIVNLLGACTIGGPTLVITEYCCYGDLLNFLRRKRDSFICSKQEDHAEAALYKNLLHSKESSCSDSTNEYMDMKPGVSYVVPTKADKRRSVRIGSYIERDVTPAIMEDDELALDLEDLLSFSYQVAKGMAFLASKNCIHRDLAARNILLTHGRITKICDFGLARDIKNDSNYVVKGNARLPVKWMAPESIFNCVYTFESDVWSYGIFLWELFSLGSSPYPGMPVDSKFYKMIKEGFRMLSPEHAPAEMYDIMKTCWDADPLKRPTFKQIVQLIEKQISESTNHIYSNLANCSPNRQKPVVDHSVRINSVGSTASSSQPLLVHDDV
Chain of RET (P07949 29-1114, species assumed): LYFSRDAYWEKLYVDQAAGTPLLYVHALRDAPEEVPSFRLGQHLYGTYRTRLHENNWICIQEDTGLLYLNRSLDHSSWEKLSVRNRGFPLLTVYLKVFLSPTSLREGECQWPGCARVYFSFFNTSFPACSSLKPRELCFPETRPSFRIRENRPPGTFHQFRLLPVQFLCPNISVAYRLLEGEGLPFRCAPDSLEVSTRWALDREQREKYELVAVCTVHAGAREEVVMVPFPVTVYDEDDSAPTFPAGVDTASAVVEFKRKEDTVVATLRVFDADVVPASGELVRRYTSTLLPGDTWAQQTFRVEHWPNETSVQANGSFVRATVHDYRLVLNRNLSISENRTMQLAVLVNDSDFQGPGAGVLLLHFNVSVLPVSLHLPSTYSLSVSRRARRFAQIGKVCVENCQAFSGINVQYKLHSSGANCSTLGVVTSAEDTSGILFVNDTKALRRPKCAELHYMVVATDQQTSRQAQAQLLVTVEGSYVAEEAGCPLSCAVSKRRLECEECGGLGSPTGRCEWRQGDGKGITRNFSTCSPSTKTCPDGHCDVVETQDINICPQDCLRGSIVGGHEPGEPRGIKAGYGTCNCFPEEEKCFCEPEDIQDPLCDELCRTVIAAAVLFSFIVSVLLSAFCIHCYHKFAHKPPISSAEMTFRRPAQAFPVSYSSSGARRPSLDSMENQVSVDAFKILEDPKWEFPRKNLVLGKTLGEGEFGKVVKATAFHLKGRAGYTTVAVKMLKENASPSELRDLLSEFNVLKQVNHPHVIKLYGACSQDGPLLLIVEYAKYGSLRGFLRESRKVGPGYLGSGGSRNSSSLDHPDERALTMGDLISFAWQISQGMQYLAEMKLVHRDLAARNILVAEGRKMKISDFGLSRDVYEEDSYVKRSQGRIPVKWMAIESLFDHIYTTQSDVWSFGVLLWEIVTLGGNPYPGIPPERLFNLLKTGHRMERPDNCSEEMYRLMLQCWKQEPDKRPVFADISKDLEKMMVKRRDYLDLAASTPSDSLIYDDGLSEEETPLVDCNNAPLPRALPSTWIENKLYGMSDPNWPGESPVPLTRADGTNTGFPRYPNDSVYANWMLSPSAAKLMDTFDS
Chain of c-Src (P12931 whole entry, species assumed): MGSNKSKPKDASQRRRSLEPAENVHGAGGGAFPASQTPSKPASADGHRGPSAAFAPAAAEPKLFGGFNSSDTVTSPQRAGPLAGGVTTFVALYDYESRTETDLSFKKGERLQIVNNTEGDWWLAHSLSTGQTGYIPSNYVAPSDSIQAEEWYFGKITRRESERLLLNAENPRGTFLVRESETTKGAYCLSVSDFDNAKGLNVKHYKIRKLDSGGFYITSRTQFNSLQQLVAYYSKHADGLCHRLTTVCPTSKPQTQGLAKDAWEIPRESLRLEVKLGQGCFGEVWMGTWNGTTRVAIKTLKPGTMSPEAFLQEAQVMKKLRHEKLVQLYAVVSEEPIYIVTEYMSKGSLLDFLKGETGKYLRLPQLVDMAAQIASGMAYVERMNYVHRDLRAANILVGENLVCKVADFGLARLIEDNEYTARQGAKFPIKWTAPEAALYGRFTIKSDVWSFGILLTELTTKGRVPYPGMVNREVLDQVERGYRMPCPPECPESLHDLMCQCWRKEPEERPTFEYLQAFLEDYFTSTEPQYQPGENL
Chain of phospho-VEGFR-2 (Tyr951) (P35918 20-1345): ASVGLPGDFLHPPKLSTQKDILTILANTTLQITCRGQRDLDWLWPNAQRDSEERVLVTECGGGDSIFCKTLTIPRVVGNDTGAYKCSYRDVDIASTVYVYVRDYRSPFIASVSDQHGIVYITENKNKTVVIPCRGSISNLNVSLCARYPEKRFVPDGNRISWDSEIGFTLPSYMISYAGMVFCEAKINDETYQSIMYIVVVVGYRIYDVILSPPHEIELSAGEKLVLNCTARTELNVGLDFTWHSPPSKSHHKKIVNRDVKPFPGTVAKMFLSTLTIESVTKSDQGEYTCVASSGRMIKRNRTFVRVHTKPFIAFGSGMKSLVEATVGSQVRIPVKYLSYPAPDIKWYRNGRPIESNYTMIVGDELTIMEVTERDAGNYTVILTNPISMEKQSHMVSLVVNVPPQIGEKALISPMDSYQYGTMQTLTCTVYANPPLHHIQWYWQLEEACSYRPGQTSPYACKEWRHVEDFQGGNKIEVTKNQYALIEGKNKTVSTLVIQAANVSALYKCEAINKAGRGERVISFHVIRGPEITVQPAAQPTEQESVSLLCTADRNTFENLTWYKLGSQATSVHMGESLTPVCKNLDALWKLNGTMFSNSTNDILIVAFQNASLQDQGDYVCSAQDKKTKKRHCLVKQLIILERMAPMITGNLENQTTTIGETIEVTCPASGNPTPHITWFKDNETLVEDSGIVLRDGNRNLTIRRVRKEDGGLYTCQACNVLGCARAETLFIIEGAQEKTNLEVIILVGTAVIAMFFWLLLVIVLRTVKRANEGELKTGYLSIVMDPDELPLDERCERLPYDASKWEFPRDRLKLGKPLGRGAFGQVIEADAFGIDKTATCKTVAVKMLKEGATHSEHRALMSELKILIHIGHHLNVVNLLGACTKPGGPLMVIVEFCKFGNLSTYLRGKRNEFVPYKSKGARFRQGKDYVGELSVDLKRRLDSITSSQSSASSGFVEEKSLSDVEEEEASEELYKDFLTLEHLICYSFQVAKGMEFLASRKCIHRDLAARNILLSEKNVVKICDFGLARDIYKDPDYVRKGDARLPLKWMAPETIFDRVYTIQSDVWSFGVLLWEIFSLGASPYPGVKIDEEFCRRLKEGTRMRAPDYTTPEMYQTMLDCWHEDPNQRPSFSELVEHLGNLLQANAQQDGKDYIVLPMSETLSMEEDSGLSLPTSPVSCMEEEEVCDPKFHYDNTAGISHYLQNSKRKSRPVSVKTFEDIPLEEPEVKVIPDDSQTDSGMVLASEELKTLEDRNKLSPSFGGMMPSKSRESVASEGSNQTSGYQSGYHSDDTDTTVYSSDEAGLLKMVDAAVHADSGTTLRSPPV

| SMILES | inhibition at 10 µM (c-Kit) [%] | inhibition at 10 µM (c-Raf) [%] | inhibition at 10 µM (c-Src) [%] | inhibition at 10 µM (RET) [%] | Tumor Index ([1]; 5 mg/kg/day po, 8 consecutive days, mean ± SD, n = 6) | TGI (%) ([1]; 5 mg/kg/day po) | Histopathological examination of EAC tumor sections (necrosis) ([1]; 5 mg/kg) | TGI (%) ([1]; 10 mg/kg/day po) | Histopathological examination of EAC tumor sections (necrosis) ([1]; 10 mg/kg) | Antiangiogenic effect in Miles vascular permeability assay [2] | VEGFR-2 phosphorylation in EAC solid tumor (phospho-VEGFR-2 (Tyr951)) | Active caspase 3 levels in EAC solid tumor (active caspase 3) | %MVD in EAC solid tumor (CD31 and CD34 (% MVD)) |
| --- | --- | --- | --- | --- | --- | --- | --- | --- | --- | --- | --- | --- | --- |
| COc1cccc(NC(=O)Nc2ccc(Oc3ncnc4sc5c(c34)CCCC5)cc2)c1 [Compound 21c] | 83 | 26 | 8 | 91 |  |  |  |  |  |  |  |  |  |
| Cc1cccc(NC(=O)Nc2ccc(Oc3ncnc4sc5c(c34)CCCC5)cc2)c1 [Compound 21b] | 81 | 35 | 7 | 87 | 0.041 ± 0.016 | 70.7 | mild focal necrosis | 86.4 | moderate diffuse necrosis | confirmed the antiangiogenic effects | decreased VEGFR-2 phosphoryaltion | increased active caspase 3 levels | reduction of %MVD |
